BindingDB's records for doi:10.1111/j.1476-5381.1983.tb10541.x (University of Edinburgh, 1983)
Where “and” joins values, the source holds several entries; their conditions need not be identical. Identical values can stand only once.

Target: T1, Thromboxane A2 receptor (Mus musculus, UniProt P30987)
T1 sequence (P30987 whole entry): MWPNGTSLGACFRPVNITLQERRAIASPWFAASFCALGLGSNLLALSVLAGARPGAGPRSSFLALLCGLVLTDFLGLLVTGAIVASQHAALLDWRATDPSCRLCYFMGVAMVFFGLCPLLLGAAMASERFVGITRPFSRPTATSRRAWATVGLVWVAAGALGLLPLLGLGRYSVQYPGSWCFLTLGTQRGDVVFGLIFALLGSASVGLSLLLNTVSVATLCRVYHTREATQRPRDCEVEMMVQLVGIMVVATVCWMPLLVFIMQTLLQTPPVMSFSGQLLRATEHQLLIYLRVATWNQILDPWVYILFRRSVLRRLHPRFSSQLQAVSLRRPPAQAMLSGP

**Q.** For `CCCCC(C)(C)[C@H](O)/C=C/[C@@H]1[C@@H](C/C=C\CCCC(=O)O)[C@@H](O)C[C@H]1O`, which Ki is on record?
**A.** 770 nM

**Q.** `CCCCC[C@@H](O)/C=C/[C@H]1[C@H](O)CC(=O)[C@@H]1CCCCCCC(=O)O` was tested. Which Ki did it give?
**A.** > 10000 nM

**Q.** Which Ki does the source give for `COc1cc(CC2NCCc3cc(O)c(O)cc32)cc(OC)c1OC` (centres undefined) [1-(3,4,5-Trimethoxy-benzyl)-1,2,3,4-tetrahydro-isoquinoline-6,7-diol] here?
**A.** > 10000 nM

**Q.** `CCCCC[C@H](O)CC[C@H]1c2cc([nH]n2)[C@@H]1CC=CCCCC(=O)O` [9,11-AzoPGH2] was tested. Which Ki did it give?
**A.** 1100 nM

**Q.** With `CCCCCC(O)C=CC1C2CCC(C2)C1CC=CCCCC(=O)O` (centres undefined) [9,11-ethano PGH2] as the compound, how does the Ki read?
**A.** 440 nM

**Q.** How did the Ki turn out when `CCCCC[C@H](O)/C=C/[C@H]1C2OC2C(=O)[C@@H]1C/C=C\CCCC(=O)O` (stereo partly drawn) [10alpha,11alpha-oxido PGA2] was run?
**A.** > 10000 nM

**Q.** For `CCCCC[C@H](O)/C=C/[C@@H]1[C@@H](/C=C\CCCC(=O)O)[C@H]2CO[C@@H]1C2` [11,9-epoxymethano PGH2], which Ki is on record?
**A.** 360 nM

**Q.** For `CCCCC[C@H](O)/C=C/C1[C@H](O)C[C@H](O)[C@@H]1C/C=C\CCCC(=O)O` (stereo partly drawn) [(Z)-7-[(1R,3R,5S)-3,5-Dihydroxy-2-((E)-(S)-3-hydroxy-oct-1-enyl)-cyclopentyl]-hept-5-enoic acid], which Ki is on record?
**A.** > 10000 nM

**Q.** With `CCCCCC(O)CC=C1C(=O)C=CC1CC=CCCCC(=O)O` (centres undefined) [CAS_41598-07-6] as the compound, how does the Ki read?
**A.** > 10000 nM

**Q.** For `CCCCC[C@H](O)/C=C/[C@H]1O[C@H]2C[C@H](O2)[C@@H]1C/C=C\CCCC(=O)O` [CAS_57576-52-0], which Ki is on record?
**A.** 1300 nM

**Q.** For `CCCCC[C@@H](O)/C=C/[C@H]1C[C@H]2C[C@@H]([C@@H]1C/C=C\CCCC(=O)O)C2(C)C` [CAS_71111-01-8], which Ki is on record?
**A.** 1400 nM

**Q.** For `CCCCC[C@H](O)/C=C/C1C[C@H]2C[C@H](C2)[C@@H]1C/C=C\CCCC(=O)O` (some centres undefined) [CAS_74034-56-3], which Ki is on record?
**A.** 1500 nM

**Q.** With `O=C(O)CCCC=CCC1C(O)CC(O)C1C=CC(O)COc1ccc(F)cc1` (centres undefined) [CAS_188200] as the compound, how does the Ki read?
**A.** 320 nM

**Q.** For `CCCCC[C@H](O)/C=C/[C@H]1[C@H](O)CC(=O)[C@@H]1C/C=C\CCCC(=O)O` [DINOPROSTONE], which Ki is on record?
**A.** > 10000 nM

**Q.** With `O=C(O)CCC/C=C/C[C@H]1C2C=CC(C2)[C@@H]1/C=C/[C@H](O)COc1ccc(F)cc1` (some centres undefined) [EP011] as the compound, how does the Ki read?
**A.** 1200 nM

**Q.** `CCCCCC(C)(O)C=CC1C(O)CC(O)C1CC=CCCCC(=O)O` (centres undefined) [NSC_37255] was tested. Which Ki did it give?
**A.** > 10000 nM

**Q.** Which Ki does the source give for `O=C(O)CCCC=CCC1C2CCC(C2)C1C=NNC(=O)Nc1ccccc1` (centres undefined) [NSC_5311388] here?
**A.** 460 nM

**Q.** `CCCCC[C@H](O)/C=C/[C@@H]1[C@@H](C/C=C\CCCC(=O)O)[C@@H]2C[C@H]1OO2` [PGH2] was tested. Which Ki did it give?
**A.** 200 nM and 1600 nM

**Q.** How did the Ki turn out when `CCCCC/C=C\C/C=C\C/C=C\C/C=C\CCCC(=O)O` [[1-14C]Arachidonic acid] was run?
**A.** > 10000 nM
